Patent US20030225152A1, “3-(Arylamino)methylene-1, 3-dihydro-2h-indol-2-ones as kinase inhibitors” (priority 2001, published 2003)

Columns and labels:
[1] = tested on: VEGF induced increases in intracellular calcium levels in HUVEC (human umbilical vein endothelial cells); experiment: VEGF Stimulated Ca++ Signal in vitro (FLIPR); type: cell-based; details: VEGF 5 ng/mL; for IC50: 0.01 to 10.0 μM
In short: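 HUVEC loaded with Fluo-4 (45 min, 37° C.), washed, then pre-incubated 30 min with compound (10 μM single dose or 0.01–10.0 μM; 0.1% DMSO) before 5 ng/mL VEGF. Fluorescence at 516 nm read by FLIPR; IC50 from % inhibition of max-min VEGF response.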

[2] = target: T1, cytoplasmic domain of the human VEGF receptor (VEGFR-2) (Homo sapiens, UniProt P35968); experiment: KDR Assay; type: biochemical; details: His-VEGFR-2; 3.6 μM ATP
T1 construct: The cytoplasmic domain of the human VEGF receptor (VEGFR-2) was expressed as a Histidine-tagged fusion protein; Histidine tag
In short: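 His-tagged human VEGFR-2 cytoplasmic domain from baculovirus-infected insect cells, acting on poly-Glu-Tyr (4:1)-coated plates with 3.6 μM ATP in Hepes pH 7.4 with MgCl2/MnCl2 and 5% final DMSO, 10 min at 25 °C. Phosphotyrosine detected by peroxidase-conjugated antibody ELISA at 492 nm; IC50 from blank-subtracted OD versus concentration.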

[3] = tested on: VEGF-induced EBD extravasation; experiment: VEGF-induced Dermal Extravasation in Guinea Pig (Miles Assay); type: in vivo
Protocol: VEGF-induced Dermal Extravasation in Guinea Pig (Miles Assay). Male Hartley guinea pigs (300-600 g) were anesthetized with isofluorane, sheared, and given a single dose of drug or the respective vehicle. The guinea pigs were dosed orally unless indicated otherwise in Table 3. Ten minutes prior to the end of drug treatment, guinea pigs were anesthetized with isofluorane, and 0.5% Evans blue dye (EBD) in PBS (13-15 mg/kg dose of EBD) was injected intravenously. After 5 minutes, triplicate intradermal injections of 100 ng rhVEGF165 in 100 μl PBS and of 100 μl PBS alone were administered on the flank. After 20 minutes, each animal was euthanized with Pentosol, and the skin containing the intradermal injection sites was removed for image analysis.
Using an analog video camera coupled to a PC, an image of each trans-illuminated skin sample was captured, and the integrated optical density of each injection site was measured using ImagePro 4. For each skin sample, the difference between the mean optical density of the VEGF sites and mean optical density of the PBS sites is the measure of VEGF-induced EBD extravasation in that animal. These measured values were averaged per study group to determine the mean VEGF-induced EBD extravasation for each experimental condition, and the group means were then compared to assess inhibition of VEGF-induced EBD extravasation in the drug-treated groups relative to the vehicle-treated controls.
To determine the dose required for 50% inhibition (ID50), the percent inhibition data was plotted as a function of oral dose, using the ‘best-fit’ analysis within MicroSoft Excel software. The ID50 value was verified visually by using the plotted data (horizontal line from 50% y value, at intersection with best-fit line drop vertical line to x axis (dose)).

T1 sequence (P35968 786-1356): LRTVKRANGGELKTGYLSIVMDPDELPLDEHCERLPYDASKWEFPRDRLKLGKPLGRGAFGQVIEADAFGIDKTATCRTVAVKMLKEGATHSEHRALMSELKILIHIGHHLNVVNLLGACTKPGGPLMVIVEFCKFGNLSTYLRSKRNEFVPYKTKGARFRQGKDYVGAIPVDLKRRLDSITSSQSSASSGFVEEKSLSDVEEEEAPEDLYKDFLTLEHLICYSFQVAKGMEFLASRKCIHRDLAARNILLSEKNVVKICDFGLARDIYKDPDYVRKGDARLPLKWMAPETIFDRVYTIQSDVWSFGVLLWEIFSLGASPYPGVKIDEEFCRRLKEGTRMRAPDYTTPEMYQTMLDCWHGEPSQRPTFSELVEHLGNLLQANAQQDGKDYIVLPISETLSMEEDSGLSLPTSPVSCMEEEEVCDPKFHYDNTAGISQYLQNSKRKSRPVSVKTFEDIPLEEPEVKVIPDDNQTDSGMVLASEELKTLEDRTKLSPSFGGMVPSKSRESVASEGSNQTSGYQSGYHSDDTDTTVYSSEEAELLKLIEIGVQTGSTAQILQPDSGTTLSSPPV

SMILES | IC50 [1] [nM] | inhibition at 10 µM ([1]; Homo sapiens) [%] | IC50 ([1]; Homo sapiens) [nM] | IC50 [2] [nM] | Miles Assay % inhibition ([3]; 75 mg/kg, PEG400, oral) [%] | Miles Assay % inhibition ([3]; 75 mg/kg, corn oil, oral) [%] | Miles Assay % inhibition ([3]; 40 mg/kg, corn oil, oral) [%]
CN(C)c1ccc(NC=C2C(=O)Nc3ccccc32)cc1 [Example 156, 3-[(4-Dimethylamino-phenylamino)-methylene]-1,3-dihydro-indol-2-one] | 830 | 95.4 | ≤ 1000 | 510 | 100 |  | 
CN1CCN(c2ccc(NC=C3C(=O)Nc4ccccc43)cc2)CC1 [Example 157, 3-{[4-(4-Methyl-piperazin-1-yl)-phenylamino]-methylenel}-1,3-dihydro-indol-2-one] |  | 97.9 |  | 250 | 38 |  | 
O=C1Nc2ccc(F)cc2C1=CNc1ccc(N2CCOCC2)cc1 [Example 167, 5-Fluoro-3-[(4-morpholin-4-yl-phenylamino)-methylene]-1,3-dihydro-indol-2-one] |  | 95.7 |  | 190 | 31 |  | 
O=C1Nc2ccccc2C1=CNc1ccc(OCCCCN2CCCC2)cc1 [Example 179, 3-{[4-(4-Pyrrolidin-1-yl-butoxy)-phenylamino]-methylene}-1,3-dihydro-indol-2-one] | 640 | 97.3 | ≤ 1000 | 310 | 65 |  | 
Cc1cccc2c1C(=CNc1ccc(N)cc1)C(=O)N2 [Example 181, 3-[(4-Amino-phenylamino)-methylene]-4-methyl-1,3-dihydro-indol-2-one] |  | 97.7 |  | 350 | 38 |  | 
O=C1Nc2ccccc2C1=CNc1ccc(OCCCCN2CCOCC2)cc1 [Example 206, 3-{[4-(4-Morpholin-4-yl-butoxy)-phenylamino]-methylene}-1,3-dihydro-indol-2-one] | 670 | 96.3 | ≤ 1000 | 240 |  | 74 | 
CCN(CC)CCCCOc1ccc(NC=C2C(=O)Nc3ccccc32)cc1 [Example 207, 3-{[4-(4-Diethylamino-butoxy)-phenylamino]-methylene}-1,3-dihydro-indol-2-one] | 510 | 98.6 | ≤ 1000 | 240 |  | 80 | 
CN1CCN(CCCCOc2ccc(NC=C3C(=O)Nc4ccccc43)cc2)CC1 [Example 208, 3-({4-[4-(4-Methyl-piperazin-1-yl)-butoxy]-phenylamino}-methylene)-1,3-dihydro-indol-2-one] | 530 | 99 | ≤ 1000 | 260 |  | 32 | 
Nc1cccc(NC=C2C(=O)Nc3ccccc32)c1 [Example 211, 3-[(3-Amino-phenylamino)-methylene]-1,3-dihydro-indo1-2-one] | 660 | 96.7 | ≤ 1000 | 460 | 38 |  | 
CCN(CC)CCCOc1ccc(NC=C2C(=O)Nc3ccccc32)cc1 [Example 214, 3-{[14-(3-Diethylamino-propoxy)-phenylamino]-methylene}-1,3-dihydro-indol-2-one] |  | 97.3 |  | 330 | 61 | 78 | 
O=C1Nc2ccccc2C1=CNc1ccc(OCCCN2CCOCC2)cc1 [Example 215, 3-{[4-(3-Morpholin-4-yl-propoxy)-phenylamino]-methylene}-1,3-dihydro-indol-2-one] | 670 | 96.7 | ≤ 1000 | 340 | 53 |  | 
O=C1Nc2cc(F)ccc2C1=CNc1ccc(OCCCCN2CCCCC2)cc1 [Example 247, 6-Fluoro-3-{[4-(4-piperidin-1-yl-butoxy)-phenylamino]-methylene}-1,3-dihydro-indol-2-one] |  |  |  | 200 |  | 45 | 
CCN(CC)CCCOc1ccc(NC=C2C(=O)Nc3cccc(C)c32)cc1F [Example 249, 3-{[4-(3-Diethylamino-propoxy)-3-fluoro-phenylamino]-methylene}-4-methyl-1,3-dihydro-indol-2-one] |  |  |  | 70 |  | 29 | 
CCN(CC)CCCOc1ccc(NC=C2C(=O)Nc3cc(F)ccc32)cc1F [Example 250, 3-{[4-(3-Diethylamino-propoxy)-3-fluoro-phenylamino]-methylene}-6-fluoro-1,3-dihydro-indol-2-one] |  |  |  | 150 |  | 62 | 
CCN(CC)CCOc1ccc(NC=C2C(=O)Nc3cc(F)ccc32)cc1 [Example 266, 3-{[4-(2-Diethylamino-ethoxy)-phenylamino]-methylene}-6-fluoro-1,3-dihydro-indol-2-one] |  |  |  | 170 |  |  | 82
O=C1Nc2cc(F)ccc2C1=CNc1ccc(OCCN2CCCC2)cc1 [Example 271, 6-Fluoro-3-{[4-(2-pyrrolidin-1-yl-ethoxy)-phenylamino]-methylene}-1,3-dihydro-indol-2-one] |  |  |  | 130 |  |  | 98
O=C1Nc2ccc(Cl)cc2C1=CNc1ccc(CCN2CCCCC2)cc1 [Example 285, 5-Chloro-3-{[4-(2-piperidin-1-yl-ethyl)-phenylamino]-methylene}-1,3-dihydro-indol-2-one] | 560 |  | ≤ 1000 | 110 |  |  | 
O=C1Nc2cccc(F)c2C1=CNc1ccc(CCN2CCCCC2)cc1 [Example 287, 4-Fluoro-3-{[4-(2-piperidin-1-yl-ethyl)-phenylamino]-methylene}-1,3-dihydro-indol-2-one] | 620 |  | ≤ 1000 | 110 |  |  | 
O=C1Nc2ccc(Cl)cc2C1=CNc1ccc(CN2CCOCC2)cc1 [Example 291, 5-Chloro-3-[(4-morpholin-4-ylmethyl-phenylamino)-methylene]-1,3-dihydro-indol-2-one] | 660 |  | ≤ 1000 | 210 |  |  | 
O=C1Nc2cccc(F)c2C1=CNc1ccc(CN2CCOCC2)cc1 [Example 293, 4-Fluoro-3-[(4-morpholin-4-ylmethyl-phenylamino)-methylene]-1,3-dihydro-indol-2-one] | 880 |  | ≤ 1000 | 470 |  |  | 
O=C1Nc2cccc(F)c2C1=CNc1ccc(NCCCN2CCOCC2)cc1 [Example 301, 4-Fluoro-3-{[4-(3-morpholin-4-yl-propylamino)-phenylamino]-methylene}-1,3-dihydro-indol-2-one] | 770 |  | ≤ 1000 | 270 |  |  | 
O=C1Nc2ccccc2C1=CNc1ccc(OCCCN2CCC(F)C2)cc1 (stereo not shown) [Example 305, 3-({4-[3-(3-Fluoro-pyrrolidin-1-yl)-propoxy]-phenylamino}-methylene)-1,3-dihydro-indol-2-one] | 550 |  | ≤ 1000 | 310 |  |  | 
O=C1Nc2ccc(Cl)cc2C1=CNc1ccc(CCN2CCOCC2)cc1 [Example 307, 5-Chloro-3-{[4-(2-morpholin-4-yl-ethyl)-phenylamino]-methylene}-1,3-dihydro-indol-2-one] | 650 |  | ≤ 1000 | 270 |  |  | 
O=C1Nc2cccc(F)c2C1=CNc1ccc(CCN2CCOCC2)cc1 [Example 309, 4-Fluoro-3-{[4-(2-morpholin-4-yl-ethyl)-phenylamino]-methylene}-1,3-dihydro-indol-2-one] | 680 |  | ≤ 1000 | 230 |  |  | 
